In patent US10300069B2, “Carbon monoxide-releasing molecules for therapeutic applications and methods of making and using thereof” (Georgia State University Research Foundation, Inc., priority 2014, dated 2019):

Tests used:
[1] = Completion time of reaction of TPCPD with cyclooctynes at 50 mM; format: physicochemical; conditions: 50 mM concentration
RAW cells = assay: WST-1 cytotoxicity test on RAW cells; format: cell-based, mouse
Experimental: In order to assess the cytotoxic effect of the reactants, 1 and 6a, as well as product 31, on RAW cells, the cytotoxicity test WST-1 was performed to examine induction by TPCPD (1) and BCN (6a) over varying concentrations and periods of time (FIGS. 3A-3C).
Different concentrations of each molecule were assessed: from 0.78 to 100 μM for 1 and 31 and 7.8 to 1000 μM for 6a. Different time points were assessed (1 h, 4 h, 8 h and 24 h). Triton 0.1% was used as a positive control of cytotoxicity and the subsequent value was established as 100% of cytotoxicity.

[2] = MTT cytotoxicity test of mannose-modified reactants (FIG. 4)
Experimental: The cytotoxicity test, MTT assay, was performed to define the concentration using TPCPD-M (57, 1 mM) and BCN-M (61, 1 mM) (FIG. 4).

[3] = Intramolecular DARinv (CO release) in DMSO/PBS (7.4) at 37° C.; format: physicochemical
Text: (§1) Then the reaction mixture was extracted with ethyl acetate, and the obtained organic layer was dried with anhydrous Na2SO4, filtered and concentrated.
Then the reaction mixture was extracted with ethyl acetate, and the obtained organic layer was dried with anhydrous Na2SO4.
as §1

[4] = Water solubility of mannose-modified reactants; format: physicochemical
TNF-α = assay: LPS-induced accumulation of TNF-α by ELISA in RAW 264.7 culture supernatant; format: cell-based, mouse; conditions: tested separately (control)
Experimental: RAW264.7 cell were seeded in 6-well plates and incubated overnight. Cells were then stimulated with LPS (10 mg/mL) for 1 h. TPCPD (1) and BCN (6a) (different concentrations) were added to well after 1 hr LPS treatment (same for all wells). As a control, the product (31) was used at same concentration as the anti-inflammation test to confirm that the suppression of TNF-α is result of CO instead of the reagent (or product) themselves (compounds 1, 6a, and 31). TNF-α secretion in the medium was measured with an eBioscience kit (mouse TNF-α ELISA kit, eBioscience, San Diego, Calif., USA).
TNF-α is a major pro-inflammatory cytokine, mainly secreted from macrophages and dendritic cells. Its production is induced in vitro by stimulation with LPS. The accumulation of TNF-α was assessed by ELISA in the culture supernatant of the macrophage cell line, RAW 264.7 (FIG. 5). The cells were stimulated for 1 h and then co-treated by […] for 24 h. […] A 50% decrease of the LPS-induced accumulation of TNF-α was observed after co-treatment with TPCPD-M and BCN-M at the respective concentration of 1 mM+1 mM.
As a control, the effect of the TPCPD-M and BCN-M were tested separately (FIG. 5).

[5] = 8 h, within the concentration range studied

OCC1[C@H]2CCC#CCC[C@@H]12 (stereo partly drawn) [BCN]
time in which the reaction with TPCPD finished [1]: ≤ 5 min | cytotoxicity (RAW cells; [5]): Neither 6a (FIG. 3B) and nor the product (FIG. 3C) displayed any sign of cytotoxicity | cytotoxicity (RAW cells; 24 h, 1 mM): 60%

NCC(=O)O.[C-]#[O+].[C-]#[O+].[C-]#[O+].[Cl][Ru] [CORM3, reference compound]
decrease in cell viability ([2]; 1 mM concentration): 30%

O=C1C(c2ccccc2)=C(c2ccccc2)C(c2ccccc2)=C1c1ccccc1 [TPCPD]
toxicity (cytotoxicity, Triton 0.1% = 100%) (RAW cells; 8 h, 50 μM): 44% | toxicity (cytotoxicity, Triton 0.1% = 100%) (RAW cells; 8 h, 100 μM): 49% | cytotoxicity (RAW cells; 24 h, concentrations higher than 12.5 μM): more than 50%

OC[C@@H]1[C@H]2CCc3c(c(-c4ccccc4)c(-c4ccccc4)c(-c4ccccc4)c3-c3ccccc3)CC[C@@H]12 [compound 31]
cytotoxicity (RAW cells; [5]): Neither 6a (FIG. 3B) and nor the product (FIG. 3C) displayed any sign of cytotoxicity | cytotoxicity (RAW cells; 24 h, within the concentration range tested): not cytotoxic

C#CCOc1ccccc1C1=C2C(=C(C(=O)N3CCOCC3)C1=O)c1cccc3cccc2c13 [compound 51]
incubation time after which the intramolecular DARinv reaction was finished [3]: 16 h

O=C(NCCOCCOCCOC1OC(CO)C(O)C(O)C1O)OCC1[C@H]2CCC#CCC[C@@H]12 (stereo partly drawn) [compound 61]
water solubility [4]: water soluble | inhibition of the LPS-induced accumulation of TNF-α (TNF-α): do not lead to any inhibition | cytotoxicity (MTT) ([2]; 24 h of treatment, within 1 mM concentration): none of the compounds led to any cytotoxicity

C1#CCCCCCC1 [cyclooctyne]
time in which the reaction with TPCPD finished [1]: 15 min

fluorocyclooctyne [fluorocycolooctyne]
time after which the reaction with TPCPD had not reached completion [1]: > 24 h
